Measured values as given in patent US11420966B2 (ACLARIS THERAPEUTICS, INC., priority 2019, dated 2022).
Structures can show the parent of a compound that is named as a salt.

Legend:
[1] = tested on: IL-12 stimulated STAT4 phosphorylation on Tyr693 (JAK2/TYK2); experiment: JAK2/TYK2 cellular target modulation: IL-12 stimulated phospho-STAT4 in PBMC; assay type: cell-based; settings: human PBMC, IL-12 1.7 ng/ml; read-out: IL12-STAT4 IC50
Text: (§1) JAK Cellular Target Modulation Assays
(§2) Target modulation was based upon the ability of a compound to inhibit JAK isoform specific phosphorylation of selected substrates. IL-2 stimulated STAT5 phosphorylation on Tyr694 was used to assess JAK1/3 compound selectivity. GM-CSF stimulated STAT5 phosphorylation on Tyr694 was used to assess JAK2 compound selectivity. IFNγ stimulated STAT1 phosphorylation on Tyr701 was used to assess JAK1/2 compound selectivity. IL-12 stimulated STAT4 phosphorylation on Tyr693 was used to assess JAK2/TYK2 compound selectivity. For all four assays, human PBMC from frozen stocks were thawed, pelleted, resuspended in complete media (90% RPMI, 10% heat inactivated FBS, 10 mM HEPES, 47 μM 2-ME, pen/strep) and placed in wells of a 96 well V-bottom plate at 200,000 per well in 120 μl complete media. Compounds were added as 15 μl per well of 10× working stock solutions in complete media with 1% DMSO (or medium with 1% DMSO for controls) and placed on a plate shaker in a 37° C. incubator with 5% CO2 for 1 hour with gentle shaking (setting of 3). Stimulation used the addition of soluble cytokines. For the JAK1/3 phospho-STAT5 assay, 15 μl of 10× working stock recombinant human IL-2 was added to a final concentration of 25 ng/ml. For the JAK2 phospho-STAT5 assay, 15 μl of 10× working stock recombinant human GM-CSF was added to a final concentration of 5 ng/ml. For the JAK1/2 phospho-STAT1 assay, 15 μl of 10× working stock of recombinant human IFNγ was added to a final concentration of 10 ng/ml. For the JAK2/TYK2 phospho-STAT4 assay, 15 μl of 10× working stock of recombinant human IL-12 was added to a final concentration of 1.7 ng/ml. Plates were then placed back on the plate shaker in the incubator for an additional 5, 5, 10, and 25 minutes respectively upon which the plates were removed from the incubator, sealed with a plate sealer and the cells pelleted at 400×g for 5 minutes. After pelleting, the media was removed by aspiration and the cells were lysed in assay specific cell lysis buffer. The levels of phospho-STATS were determined using a Phospho (Tyr694) STAT5a,b Whole Cell Lysate kit from Meso Scale Discovery. Levels of phospho-STAT1 were determined using a CST-PathScan Phospho-STAT1 (Tyr701) Sandwich ELISA kit. Levels of phospho-STAT4 were determined using a Phospho-STAT4 (Tyr693) Whole Cell Lysate kit from Meso Scale Discovery.

[2] = molecular target: JAK2 (Homo sapiens (Human), UniProt O60674); experiment: JAK2 enzyme activity assay (Thermo Fisher SelectScreen, Z-lyte); assay type: biochemical; settings: read-out: JAK2 Inhibition IC50
Protocol: (§3) JAK1, JAK2, JAK3, and Tyk-2 Enzyme Activity Assays
(§4) The inhibitory potency of candidate compounds of JAK1, JAK2, and Tyk-2 was done at Thermo Fisher Scientific in their Selectscreen using a Z-lyte assay. Following are the assay details for each enzyme.
JAK2: The 2×JAK2/Tyr 06 mixture is prepared in 50 mM HEPES pH 7.5, 0.01% BRIJ-35, 10 mM MgCl2, 1 mM EGTA. The final 10 μL Kinase Reaction consists of 0.12-0.5 ng JAK2 and 2 M Tyr 06 in 50 mM HEPES pH 7.5, 0.01% BRIJ-35, 10 mM MgCl2, 1 mM EGTA. After the one hour Kinase Reaction incubation, 5 μL of a 1:128 dilution of Development Reagent A is added.
(§5) Data reduction for JAK1, JAK2 and TYK2 is done the same, independent of the enzyme run. In summary, background signal is defined in the absence of enzyme and uninhibited signal is defined in the presence of vehicle (2% DMSO) alone. Compounds were evaluated in an 11 point dose-response ranging from […] to 0.34 nM. IC50 values of compounds are determined using a 4 parameter logistical fit of emission ratio as a function of the concentration of compound.

[3] = molecular target: Tyk-2 (Homo sapiens (Human), UniProt P29597); experiment: Tyk-2 enzyme activity assay (Thermo Fisher SelectScreen, Z-lyte); assay type: biochemical; settings: read-out: Tyk-2 Inhibition IC50
Protocol: as §3, §4
TYK2: The 2×TYK2/Tyr 03 mixture is prepared in 50 mM HEPES pH 6.5, 0.01% BRIJ-35, 10 mM MgCl2, 1 mM EGTA, 0.02% NaN3. The final 10 μL Kinase Reaction consists of 3.75-15 ng TYK2 and 2 M Tyr 03 in 50 mM HEPES pH 7.0, 0.01% BRIJ-35, 10 mM MgCl2, 1 mM EGTA, 0.01% NaN3. After the one hour KinaseReaction incubation, 5 μL of a 1:4096 dilution of Development Reagent A is added.
as §5

[4] = molecular target: JAK3 (a.a. 781-1124) (Homo sapiens (Human), UniProt P52333); experiment: JAK3 enzyme activity assay (SRCtide phosphorylation, Caliper); assay type: biochemical; settings: 1 uM ATP; read-out: JAK3 Inhibition IC50
Protocol: as §3
Kinase reactions were run in a 384-well Greiner plate with 2% final DMSO concentration under the buffer conditions of 20 mM HEPES, pH 7.5, 10 mM MgCl2, 0.01% BSA, and 0.0005% Tween-20. The kinase reaction components were 2.5 nM JAK3, 1 μM SRCtide peptide and 1 uM ATP. Examples were tested in dose-response starting at 2 M (11 concentrations, 3-fold serial dilution, duplicate reactions). The reactions were incubated at room temperature for 40 minutes, then stopped by adding a 1:1 volume of 30 mM EDTA in 20 mM HEPES, pH 7.5 (15 mM EDTA final). After the reaction was stopped, the phosphorylated and unphosphorylated peptides were separated and quantified using a Caliper LC3000/EZ-Reader system and HTS Well Analyzer Software (Caliper, A PerkinElmer Company, Hopkinton, Mass.). GraFit (Erithacus Software Ltd., Horley, U.K.) was used to calculate inhibitor potency by fitting dose-response data to the 4-parameter logistical IC50 equation.

[5] = tested on: IL-2 stimulated STAT5 phosphorylation on Tyr694 (JAK1/3); experiment: JAK1/3 cellular target modulation: IL-2 stimulated phospho-STAT5 in PBMC; assay type: cell-based; settings: human PBMC, IL-2 25 ng/ml; read-out: IL2-STAT5 IC50
Text: as §1, §2

[6] = molecular target: JAK1 (Homo sapiens (Human), UniProt P23458); experiment: JAK1 enzyme activity assay (Thermo Fisher SelectScreen, Z-lyte); assay type: biochemical; settings: read-out: JAK1 Inhibition IC50
Protocol: as §3, §4
JAK: The 2×JAK-enzyme/Tyr 06 mixture is prepared in 50 mM HEPES pH 6.5, 0.01% BRIJ-35, 10 mM MgCl2, 1 mM EGTA, 0.02% NaN3. The final 10 μL of the Kinase Reaction consists of 21.2-91.5 ng JAK and 2 M Tyr 06 in 50 mM HEPES pH 7.0, 0.01% BRIJ-35, 10 mM MgCl2, 1 mM EGTA, 0.01% NaN3. After the one hour Kinase Reaction incubation, 5 μL of a 1:128 dilution of Development Reagent is added.
as §5

[7] = tested on: IFNγ stimulated STAT1 phosphorylation on Tyr701 (JAK1/2); experiment: JAK1/2 cellular target modulation: IFNγ stimulated phospho-STAT1 in PBMC; assay type: cell-based; settings: human PBMC, IFNγ 10 ng/ml; read-out: Infγ-STAT1 IC50
Text: as §1, §2

Sequence of JAK1 (P23458 whole entry): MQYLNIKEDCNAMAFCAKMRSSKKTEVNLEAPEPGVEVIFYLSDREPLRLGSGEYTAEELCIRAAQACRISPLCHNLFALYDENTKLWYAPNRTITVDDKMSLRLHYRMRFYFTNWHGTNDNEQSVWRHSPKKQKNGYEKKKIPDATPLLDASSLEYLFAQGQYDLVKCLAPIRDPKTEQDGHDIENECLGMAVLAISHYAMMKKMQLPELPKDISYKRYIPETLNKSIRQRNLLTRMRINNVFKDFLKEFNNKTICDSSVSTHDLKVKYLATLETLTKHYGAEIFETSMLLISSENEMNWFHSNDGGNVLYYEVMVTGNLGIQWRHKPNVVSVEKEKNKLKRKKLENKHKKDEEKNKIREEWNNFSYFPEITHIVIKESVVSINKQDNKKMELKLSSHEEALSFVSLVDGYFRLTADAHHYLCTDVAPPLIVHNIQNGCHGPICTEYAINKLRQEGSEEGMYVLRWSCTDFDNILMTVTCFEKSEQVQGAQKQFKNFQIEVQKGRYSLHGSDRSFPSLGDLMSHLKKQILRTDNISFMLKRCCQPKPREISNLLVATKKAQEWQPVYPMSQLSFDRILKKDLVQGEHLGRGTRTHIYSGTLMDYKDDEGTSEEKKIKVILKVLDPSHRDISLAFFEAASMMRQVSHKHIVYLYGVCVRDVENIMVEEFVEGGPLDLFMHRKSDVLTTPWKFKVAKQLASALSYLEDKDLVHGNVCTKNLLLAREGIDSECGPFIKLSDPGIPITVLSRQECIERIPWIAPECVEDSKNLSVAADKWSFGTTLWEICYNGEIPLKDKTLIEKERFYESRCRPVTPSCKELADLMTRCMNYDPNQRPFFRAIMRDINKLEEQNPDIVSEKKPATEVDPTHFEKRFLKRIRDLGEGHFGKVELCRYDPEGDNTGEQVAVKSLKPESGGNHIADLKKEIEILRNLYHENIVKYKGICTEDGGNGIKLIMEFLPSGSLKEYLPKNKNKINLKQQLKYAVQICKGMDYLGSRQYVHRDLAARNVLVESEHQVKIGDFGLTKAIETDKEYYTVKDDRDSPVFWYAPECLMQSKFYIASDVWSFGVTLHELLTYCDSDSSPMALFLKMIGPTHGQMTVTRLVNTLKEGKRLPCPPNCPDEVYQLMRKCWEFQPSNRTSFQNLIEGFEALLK
Sequence of JAK2 (O60674 whole entry): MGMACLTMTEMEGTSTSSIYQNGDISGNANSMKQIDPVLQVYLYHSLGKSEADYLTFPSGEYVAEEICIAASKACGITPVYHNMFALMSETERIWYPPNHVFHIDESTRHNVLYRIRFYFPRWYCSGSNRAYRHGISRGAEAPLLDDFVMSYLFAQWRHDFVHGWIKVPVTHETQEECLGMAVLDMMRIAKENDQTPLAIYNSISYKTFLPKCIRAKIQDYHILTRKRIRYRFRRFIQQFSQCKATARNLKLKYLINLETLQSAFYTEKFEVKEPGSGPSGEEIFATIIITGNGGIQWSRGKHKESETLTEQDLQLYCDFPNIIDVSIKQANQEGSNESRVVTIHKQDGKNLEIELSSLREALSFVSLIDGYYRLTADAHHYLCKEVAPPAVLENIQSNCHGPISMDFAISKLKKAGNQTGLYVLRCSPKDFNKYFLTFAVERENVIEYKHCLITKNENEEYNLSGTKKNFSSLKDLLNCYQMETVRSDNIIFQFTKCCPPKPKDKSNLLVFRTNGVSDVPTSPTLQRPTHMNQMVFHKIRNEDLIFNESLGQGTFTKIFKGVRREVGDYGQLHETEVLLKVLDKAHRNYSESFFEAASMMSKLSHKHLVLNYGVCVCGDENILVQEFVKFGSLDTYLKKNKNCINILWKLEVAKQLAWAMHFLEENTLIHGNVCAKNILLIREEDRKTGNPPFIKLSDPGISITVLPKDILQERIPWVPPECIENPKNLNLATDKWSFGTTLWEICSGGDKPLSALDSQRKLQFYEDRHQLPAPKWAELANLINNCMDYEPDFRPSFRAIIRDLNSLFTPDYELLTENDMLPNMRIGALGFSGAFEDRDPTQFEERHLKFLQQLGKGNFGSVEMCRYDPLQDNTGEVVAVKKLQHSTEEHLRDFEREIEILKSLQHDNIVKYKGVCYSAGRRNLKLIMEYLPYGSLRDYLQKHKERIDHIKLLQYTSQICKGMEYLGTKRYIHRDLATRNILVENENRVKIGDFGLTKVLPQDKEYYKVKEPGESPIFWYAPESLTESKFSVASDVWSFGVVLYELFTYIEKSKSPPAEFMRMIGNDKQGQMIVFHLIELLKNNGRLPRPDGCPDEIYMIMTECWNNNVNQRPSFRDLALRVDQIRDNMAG
Sequence of JAK3 (a.a. 781-1124) (P52333 781-1124): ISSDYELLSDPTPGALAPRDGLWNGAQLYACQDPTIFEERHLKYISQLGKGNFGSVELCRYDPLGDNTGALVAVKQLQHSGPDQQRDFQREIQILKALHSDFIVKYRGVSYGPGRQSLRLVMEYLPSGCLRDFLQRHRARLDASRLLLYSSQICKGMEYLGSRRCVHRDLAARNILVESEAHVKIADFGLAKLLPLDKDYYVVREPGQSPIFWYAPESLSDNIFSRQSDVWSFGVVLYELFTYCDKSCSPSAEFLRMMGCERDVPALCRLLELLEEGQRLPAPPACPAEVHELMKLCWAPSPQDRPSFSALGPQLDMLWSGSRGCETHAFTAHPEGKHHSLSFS
Sequence of Tyk-2 (P29597 whole entry): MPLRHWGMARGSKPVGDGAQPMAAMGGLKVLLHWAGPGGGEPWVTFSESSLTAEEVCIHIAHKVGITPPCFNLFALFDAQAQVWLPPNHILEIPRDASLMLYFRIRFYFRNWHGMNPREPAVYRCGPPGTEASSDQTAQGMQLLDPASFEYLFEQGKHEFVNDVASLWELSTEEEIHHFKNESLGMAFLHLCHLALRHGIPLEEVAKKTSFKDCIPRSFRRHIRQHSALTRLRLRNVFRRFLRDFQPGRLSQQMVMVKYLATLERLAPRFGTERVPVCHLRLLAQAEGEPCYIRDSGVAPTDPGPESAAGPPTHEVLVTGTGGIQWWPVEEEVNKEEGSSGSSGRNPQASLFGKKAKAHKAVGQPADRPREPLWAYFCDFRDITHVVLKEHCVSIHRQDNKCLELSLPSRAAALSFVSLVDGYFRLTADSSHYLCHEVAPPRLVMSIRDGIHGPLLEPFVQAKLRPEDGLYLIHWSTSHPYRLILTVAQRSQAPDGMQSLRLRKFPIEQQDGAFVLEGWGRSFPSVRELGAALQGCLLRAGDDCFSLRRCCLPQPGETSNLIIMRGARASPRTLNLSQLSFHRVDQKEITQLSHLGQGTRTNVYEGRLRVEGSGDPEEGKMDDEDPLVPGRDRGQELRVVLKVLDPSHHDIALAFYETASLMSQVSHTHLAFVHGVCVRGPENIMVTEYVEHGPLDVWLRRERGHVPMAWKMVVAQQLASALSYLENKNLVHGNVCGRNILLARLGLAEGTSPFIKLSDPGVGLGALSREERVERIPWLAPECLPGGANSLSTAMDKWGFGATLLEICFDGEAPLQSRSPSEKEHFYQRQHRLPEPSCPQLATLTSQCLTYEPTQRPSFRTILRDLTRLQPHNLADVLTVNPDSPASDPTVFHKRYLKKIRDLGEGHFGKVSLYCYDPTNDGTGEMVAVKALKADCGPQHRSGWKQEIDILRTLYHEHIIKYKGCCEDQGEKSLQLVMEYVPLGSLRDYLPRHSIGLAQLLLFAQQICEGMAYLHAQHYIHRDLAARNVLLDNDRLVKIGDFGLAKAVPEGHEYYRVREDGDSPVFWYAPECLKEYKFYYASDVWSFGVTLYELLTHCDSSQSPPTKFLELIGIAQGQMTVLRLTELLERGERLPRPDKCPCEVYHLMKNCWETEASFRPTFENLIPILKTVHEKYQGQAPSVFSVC

Row | SMILES | IC50 [1] [nM] | IC50 [2] [nM] | IC50 [3] [nM] | IC50 [4] [nM] | IC50 [5] [nM] | IC50 [6] [nM] | IC50 [7] [nM]
1 | C[C@H]1C[C@@H](Nc2c(-c3ncco3)cnc3[nH]ccc23)CN(C(=O)CC#N)C1 (single isomer, unassigned) [Example 10] | ≤ 100 | ≤ 10 | ≤ 10 | ≤ 10 | ≤ 100 | ≤ 10 | ≤ 100
2 | N#CCC(=O)N1CCC[C@@H](Nc2c(-c3ccn(C(F)F)n3)cnc3[nH]ccc23)C1 [Example 2, (R)-3-(3-((5-(1-(difluoromethyl)-1H-pyrazol-3-yl)-1H-pyrrolo[2,3-b]pyridin-4-yl)amino)piperidin-1-yl)-3-oxopropanenitrile] | 100 to 1000 | 10 to 100 | 10 to 100 | ≤ 10 | ≤ 100 | ≤ 10 | 100 to 1000
3 | O[C@H]1CC[C@@H](Nc2c(-c3ccccn3)cnc3[nH]ccc23)C1 [Example 12, (1S,3R)-3-((5-(pyridin-2-yl)-1H-pyrrolo[2,3-b]pyridin-4-yl)amino)cyclopentan-1-ol] | – | 100 to 1000 | 100 to 1000 | 10 to 100 | 100 to 1000 | 100 to 1000 | > 1000
4 | N#CCC(=O)N1CCC[C@@H](Nc2c(-c3nc(C(N)=O)co3)cnc3[nH]ccc23)C1 [Example 14, (R)-2-(4-((1-(2-cyanoacetyl)piperidin-3-yl)amino)-1H-pyrrolo[2,3-b]pyridin-5-yl)oxazole-4-carboxamide] | – | 10 to 100 | 10 to 100 | ≤ 10 | 100 to 1000 | ≤ 10 | > 1000
5 | N#CCC(=O)N1CCC[C@@H](Nc2c(-c3cncs3)cnc3[nH]ccc23)C1 [Example 16, (R)-3-oxo-3-(3-((5-(thiazol-5-yl)-1H-pyrrolo[2,3-b]pyridin-4-yl)amino)piperidin-1-yl)propanenitrile] | – | 100 to 1000 | 100 to 1000 | 10 to 100 | 100 to 1000 | 10 to 100 | > 1000
6 | N#CCC(=O)N1CCC[C@@H](Nc2c(C#N)cnc3[nH]ccc23)C1 [Example 25, (R)-4-((1-(2-cyanoacetyl)piperidin-3-yl)amino)-1H-pyrrolo[2,3-b]pyridine-5-carbonitrile] | – | 10 to 100 | 10 to 100 | 10 to 100 | ≤ 100 | ≤ 10 | 100 to 1000
7 | CNC(=O)c1csc(-c2cnc3[nH]ccc3c2N[C@@H]2CCCN(C(=O)CC#N)C2)n1 [Example 35, (R)-2-(4-((1-(2-cyanoacetyl)piperidin-3-yl)amino)-1H-pyrrolo[2,3-b]pyridin-5-yl)-N-methylthiazole-4-carboxamide] | > 1000 | 10 to 100 | 10 to 100 | ≤ 10 | 100 to 1000 | ≤ 10 | –
8 | CNC(=O)c1cnc(-c2cnc3[nH]ccc3c2N[C@@H]2CCCN(C(=O)CC#N)C2)o1 [Example 39, (R)-2-(4-((1-(2-cyanoacetyl)piperidin-3-yl)amino)-1H-pyrrolo[2,3-b]pyridin-5-yl)-N-methyloxazole-5-carboxamide] | – | ≤ 10 | 10 to 100 | ≤ 10 | > 1000 | 10 to 100 | > 1000
9 | CNC(=O)c1cnc(-c2cnc3[nH]ccc3c2N[C@@H]2CCCN(C(=O)CC#N)C2)s1 [Example 53, (R)-2-(4-((1-(2-cyanoacetyl)piperidin-3-yl)amino)-1H-pyrrolo[2,3-b]pyridin-5-yl)-N-methylthiazole-5-carboxamide] | – | ≤ 10 | ≤ 10 | ≤ 10 | ≤ 100 | ≤ 10 | ≤ 100
10 | CNCCOc1cccc(-c2cnc3[nH]ccc3c2N[C@@H]2CCCN(C(=O)CC#N)C2)n1 [Example 58, (R)-3-(3-((5-(6-(2-(methylamino)ethoxy)pyridin-2-yl)-1H-pyrrolo[2,3-b]pyridin-4-yl)amino)piperidin-1-yl)-3-oxopropanenitrile hydrochloride] | – | 100 to 1000 | 100 to 1000 | 10 to 100 | 100 to 1000 | ≤ 10 | > 1000
11 | CS(=O)(=O)c1cccc(-c2cnc3[nH]ccc3c2N[C@@H]2CCCN(C(=O)CC#N)C2)c1 [Example 59, (R)-3-(3-((5-(3-(methylsulfonyl)phenyl)-1H-pyrrolo[2,3-b]pyridin-4-yl)amino)piperidin-1-yl)-3-oxopropanenitrile] | – | 100 to 1000 | > 1000 | 100 to 1000 | 100 to 1000 | ≤ 10 | > 1000
12 | CC(=O)c1cnc(-c2cnc3[nH]ccc3c2N[C@@H]2CCCN(C(=O)CC#N)C2)o1 [Example 66, (R)-3-(3-((5-(5-acetyloxazol-2-yl)-1H-pyrrolo[2,3-b]pyridin-4-yl)amino)piperidin-1-yl)-3-oxopropanenitrile] | – | 10 to 100 | 10 to 100 | ≤ 10 | ≤ 100 | ≤ 10 | 100 to 1000
